Earlier results in publication PMC13065040 (PLOS One, 2026).

Legend:
GBM cells = details: read-out: IC50, inhibition of migration of GBM cells; cited from earlier work
From the text: (§1) Ctx (Fig 2) is a 36-residue polypeptide from the scorpion Leiurus quinquestriatus. Ctx contains 8 cysteinyl residues, forming 4 disulfide bridges which help to stabilize its three-dimensional structure. […] However, conflicting data on the effects of Ctx on the glioma-specific chloride channel makes it difficu ...

MMP-2 = details: cited from earlier work
From the text: as §1, with “... || Given the absence of change in melting temperature, the present result cannot confirm the notion that Ctx binds to the three fibronectin regions in the collagen binding domain [33].” for “...”

Chlorotoxin [Ctx]
IC50 (GBM cells): 184 nM | effect on the enzymatic activity of MMP-2 (MMP-2): no statistically significant effect | inhibition of MMP-2 enzymatic activity (MMP-2): inhibits MMP-2 enzymatic activity
